Reference: patent CN111004186A, “一种小分子荧光探针及其制备方法与应用” (Wenzhou Medical University, priority 2019, dated 2020)

What was measured:
[1] = Fluorescence titration of the probe with ClO-; details: excitation 440 nm
[2] = UV-vis absorption spectra of the probe on addition of ClO-; details: aqueous solution, probe 10 μM and 5 μM, ClO- added
[3] = test system: zebrafish (斑马鱼); assay: Fluorescence bioimaging of ClO- in zebrafish; format: in vivo
[4] = test system: MRC-5 cells (人胚肺细胞(MRC-5)); assay: Fluorescence bioimaging of ClO- in MRC-5 cells; format: cell-based, human
[5] = Fluorescence selectivity of the probe for ClO- over other ions/species

In the case of `O=C1NC(=S)NC(=O)C1=Cc1ccc2cc(O)ccc2c1` [小分子探针], the maximum emission ([1]; probe 5 μM in water with ClO-) is reported as 535 nm, the “fluorescence intensity as a function of ClO- concentration” value ([1]; probe 5 μM in water, 400-700 nm) is reported as “随ClO-浓度增加而增强” and the “absorption band at 440 nm on addition of ClO-” value [2] is reported as “逐渐减少”. For the same compound, the “new absorption peak after addition of ClO-” value [2] was 515 nm, the “red fluorescence in head and abdomen” value ([3]; 5-day-old zebrafish pretreated with probe, washed three times, then ClO- 6.0 μM) was “显着的红色荧光” and the “red fluorescence in the abdomen” value ([3]; 5-day-old zebrafish, free probe 2.0 μM, 20 min, without added ClO-) was “弱而可见的 红色荧光”. The tissue penetration ability ([3]; zebrafish) was “高组织穿透能力”, the “fluorescence signal in cells” value ([4]; MRC-5 cells incubated with free probe, without added ClO-) was “观察到可见荧光信号” and the “fluorescence intensity in the red channel” value ([4]; MRC-5 cells incubated with probe 20 min, then ClO- 6.0 μM, observed immediately) was “显着荧光强度”. The “fluorescence change with anions/species other than ClO-” value ([5]; probe 2 μM in EtOH-H2O (v/v=1:10), 1.0 eq SO3 2-, NO, 1O2, ·OH, PBO·, TBHP, DBTP, Cys, GSH, H2O2) was “没有产生明显变化”, the “fluorescence intensity after addition of ClO-” value ([5]; probe 2 μM in EtOH-H2O (v/v=1:10), ClO- 1.0 eq) was “明显” and the “selectivity for ClO-” value ([5]; probe 2 μM in EtOH-H2O (v/v=1:10), anions 1.0 eq) was “高选择性”. For the same compound, the “fluorescence change with other ions” value ([5]; probe mixed with other ions (not hypochlorite)) was “荧光基本上不发生变化” and the “fluorescence intensity on reaction with hypochlorite ion” value ([5]; probe with hypochlorite ion) was “荧光强度变强”.
